“Also recorded” adds a separate entry of the source. Counter-ions that a name gives are not always drawn.
Columns and labels:
[1] = test system: Ovariectomized (OVX) mice; assay: Load-induced bone formation in ovariectomized (OVX) osteoporotic mice; assay type: in vivo; conditions: fenoldopam 20 mg/kg 7 days, compressive ulnar load
Experimental: On the final three days of drug or control injection, animals were also subjected to compressive ulnar load at a peak load of 3 N using a 2 Hz sine wave for 120 cycles, as previously described ([…]. et al. PLoS One 7, (2012); Lee, K. L. et al. FASEB J. 28, 1157-1165 (2014)). Contralateral limbs served as a non-loaded control. 2 days following load, mice were treated with 10 mg/kg calcein (Sigma), and 4 days later 70 mg/kg alizarin (Sigma), with mice being sacrificed 6 days later. Dynamic histomorphometry was performed as previously described, measuring the amount and separation of calcein and alizarin labels to quantify mineralizing surface (rMS/BS), mineral apposition rate (rMAR), and bone formation rate (rBFR/BS) relative to non-loaded controls ([…]. et al. PLoS One 7, (2012); Lee, K. L. et al. FASEB J. 28, 1157-1165 (2014)). Left and right ulnae were dissected and preserved in ethanol. Samples were then infiltrated with methyl methacrylate, and embedded in methyl methacrylate and benzoyl peroxide. Transverse sections of the ulnar midshaft were imaged on a laser scanning confocal microscope (Olympus Fluoview FV1000). Measurements of outer bone perimeter (OP), single label perimeter (SL), double label perimeter (DL), and double label area (DA) were made in ImageJ. The mineralizing surface relative to outer bone surface (MS/BS), mineral apposition rate (MAR), and bone formation rate (BFS/BS) were calculated as: Relative measurements-rMS/BS, rMAR, rBFR/BS-were determined by subtracting non-loaded from loaded ulnae to display differences due to mechanical load. Ovariectomized (OVX) and Sham animals were purchased directly from Jackson Laboratories, with surgery performed at 12 weeks old. […] Dynamic histomorphometry was only performed on OVX animals, while Sham animals were used to confirm osteoporotic phenotype based on μCT analysis.

[2] = test system: MLO-Y4 osteocytes; assay: Primary cilia length and incidence by immunocytochemistry (acetylated α-tubulin); assay type: cell-based; conditions: for cilia incidence in untransfected (healthy, ciliated) cells: fenoldopam; for cilia incidence in AC6 siRNA treated cells / recovering cilia length in AC6 siRNA treated cells: fenoldopam on AC6 siRNA treated cells
Experimental: MLO-Y4 osteocytes were cultured on collagen-coated dishes in MEMα (Life Tech) supplemented with 5% fetal bovine serum, 5% calf serum, and 1% penicillin/streptomycin at 37° C. and 5% CO2. […] These agents, or their vehicle control, were applied to cells for 16 h prior to experimentation. MTT, (methylthiazolyldiphenyl-tetrazolium bromide) assay (Sigma) was performed according to manufacturer's protocol to assess cell viability during drug treatments. Phase contrast microscopy with an Olympus CKX41 inverted microscope and 40× objective was used to assess cell morphology.
For primary cilia imaging and analysis, cells cultured on collagen I-coated glass were fixed in 10% formalin and treated with anti-acetylated α-tubulin primary antibody, 1:1, from a C3B9 hybridoma cell line (Sigma). Cilia were visualised with Alexa-Fluor 488 secondary antibody, 1:1000 (Life Technologies) and imaged with a 100× oil objective on an Olympus Fluoview FV1000 confocal microscope. Nuclei were stained with DAPI (Life Technologies). Cilia length was analyzed using Image J software.
Gene silencing was performed by siRNA mediated knockdown and compared to scramble siRNA control (Life Technologies). […]

[3] = test system: Adenylyl cyclase; assay: Adenylyl cyclase activity: forskolin stimulated cAMP ELISA; assay type: cell-based
Experimental: Adenylyl cyclase activity was quantified by cAMP ELISA (Enzo). […] Cells were stimulated by 10 μM forskolin (Sigma) or DMSO vehicle control for 20 minutes prior to lysis with 0.1 M HCl. Cell lysate was analyzed according to manufacturer's protocol, and normalized to total protein quantified by BCA (Thermo Fisher). All samples and standards were run in duplicate.

[4] = fenoldopam 100 mg/kg, rat model (Dalmas et al. 2008); cited from earlier work
[5] = fenoldopam on IFT88 siRNA treated cells

## Oc1ccc(C2CNCCc3c2cc(O)c(O)c3Cl)cc1 (stereo not drawn) [fenoldopam, Fenoldopam mesylate]
[1]
  bone formation rate (rBFR/BS) compared to vehicle control: increased
  mineral apposition rate (rMAR) compared to vehicle control: increased
  mineralizing surface (rMS/BS) compared to vehicle control: increased
[2]; 10 μM fenoldopam, 16 h
  primary cilia length compared to vehicle control (in words): significantly increases
[2]; 10 μM fenoldopam, 16 h, listed as Fenoldopam
  primary cilia length compared to vehicle control (in words): increased
[2]; 10 μM fenoldopam, 16 h, mean±SEM
  increases in cilia length compared to vehicle control: 26%±7%
[2]
  cilia incidence in untransfected (healthy, ciliated) cells: no significant effect
  cilia incidence in AC6 siRNA treated cells: Neither AC6 siRNA nor fenoldopam alter cilia incidence
  recovering cilia length in AC6 siRNA treated cells: not recovered
[2]; listed as Fenoldopam
  cilia incidence in AC6 siRNA treated cells: no effect
  recovering cilia length in AC6 siRNA treated cells: no effect
  cilia incidence in untransfected (healthy, ciliated) cells: no effect
[2]; [5]
  cilia incidence in IFT88 siRNA treated cells: significantly recovering; also recorded: recovered
  cilia length / formation in IFT88 siRNA treated cells: noticeably recovered; also recorded: appears to recover cilia length
[2]; fenoldopam on IFT88 siRNA treated cells, listed as Fenoldopam
  cilia length / formation in IFT88 siRNA treated cells: recovers primary cilia formation
[3]; 10 μM fenoldopam 16 hours, then 10 μM forskolin 20 minutes
  enhancement of forskolin stimulated cAMP response compared to vehicle control: 130%±25%
[3]; fenoldopam 16 h, then forskolin 20 min
  cAMP response to forskolin stimulation (in words): significantly increases
[4]
  vasotoxicity: vasotoxic
